Assay results from US20070027121A1, “Method of treatment of diarrhea-predominant IBS in a female subject receiving contraceptive therapy” (priority 2005, published 2007).

Assays:
[1] = parameters: dose or concentration left out as unconfirmed; settings: co-administration with oral contraceptive containing; cited from earlier work
[2] = parameters: species or system human; settings: in vivo
Experimental: A double-blind, balanced, randomized, two-period, placebo-controlled, crossover study in 20 healthy female subjects (1845 years of age, and who had received Ortho Tri-Cyclen® oral contraceptive (“OC”) for three or more months immediately preceding the start of the study) of cilansetron administration was conducted. All subjects were to have their OC cycles synchronized so that on study Day 1, they received the first dose of their OC for that cycle. All subjects were to continue to receive daily administrations of OC through each of the two consecutive 28-day study periods. […] In addition, during the first 28 days of the study (“the first period”), half of the subjects were administered 2 mg doses of cilansetron three times daily (TID) for 7 days (i.e., study days 14-21), while the other half of the subjects received equivalent doses of a placebo TID. On the first day of the “second period” of the 56-day study (i.e., day 29), the two groups were crossed over for the administration of the reverse treatment (i.e., those subjects who had been administered cilansetron 2 mg TID in the first period were to receive equivalent placebo administrations, and vice versa) for 7 days (i.e., study days 4249). Thereby, all subjects received both cilansetron and placebo treatments and, therefore, served as their own control. Safety was measured by monitoring adverse events, physical examination, clinical laboratory and pulmonary function tests, vital signs, 12 lead ECG, and telemetry. […]
The mean plasma concentration-time profile for EE was determined for both treatment groups in each of the two study periods, and are set forth in Table 1 (the contents of which are graphically illustrated in FIG. 1). The mean plasma concentration-time profile for NGM was determined for both treatment groups in each of the two study periods, and are set forth in Table 2. The mean plasma concentration-time profile for 17-d-NGM was determined for both treatment groups in each of the two study periods, and are set forth in Table 3 (the contents of which are graphically illustrated in FIG. 2). […]

[3] = system: follicle stimulating hormone (FSH); assay: Mean serum concentration of FSH in crossover study of OC plus cilansetron or placebo; format: in vivo, human; settings: FIG. 4
Experimental: (§1) A double-blind, balanced, randomized, two-period, placebo-controlled, crossover study in 20 healthy female subjects (1845 years of age, and who had received Ortho Tri-Cyclen® oral contraceptive (“OC”) for three or more months immediately preceding the start of the study) of cilansetron administration was conducted. All subjects were to have their OC cycles synchronized so that on study Day 1, they received the first dose of their OC for that cycle. All subjects were to continue to receive daily administrations of OC through each of the two consecutive 28-day study periods. […] Safety was measured by monitoring adverse events, physical examination, clinical laboratory and pulmonary function tests, vital signs, 12 lead ECG, and telemetry.
(§2) In efforts to determine the effects (if any) of cilansetron 2 mg administration TID for 7 days on the pharmacodynamics of progesterone (P), luteinizing hormone (LH) and follicle stimulating hormone (FSH), the mean serum concentrations of these hormones was determined across the entire time-course of treatment, as set forth in Tables 6-8 and FIGS. 4-6. […]
(§3) Measurable serum concentrations of […], LH and P were available for 17 out of the 20 subjects, as determined using a validated ADVIA Centaur assay. […]

luteinizing hormone (LH) = assay: Mean serum concentration of LH in crossover study of OC plus cilansetron or placebo; format: in vivo, human; settings: FIG. 5
Experimental: as §1, §2, §3

progesterone (P) = assay: Mean serum concentration of progesterone (P) in crossover study of OC plus cilansetron or placebo; format: in vivo, human; settings: FIG. 6
Experimental: as §1, §2, §3

Structure (SMILES) | decrease in systemic exposure to the EE component [1] | decrease in systemic exposure to the LN component [1] | effect on the pharmacokinetic and pharmacodynamic profiles and parameters associated with normal contraceptive use [2] | mean plasma concentration of 17-d-NGM compared with OC therapy alone [2] | mean plasma concentration of EE compared with OC therapy alone [2] | mean serum concentration of FSH compared with OC therapy alone [3] | mean serum concentration of LH compared with OC therapy alone (luteinizing hormone (LH)) | mean serum concentration of endogenous progesterone (P) compared with OC therapy alone (progesterone (P))
Cc1[nH]cnc1CN1CCc2c(c3ccccc3n2C)C1=O [alosetron] | 9% | 13% |  |  |  |  |  | 
Cc1nccn1C[C@H]1CCc2c(c3cccc4c3n2CCC4)C1=O [cilansetron, (R)-(−)-4,5,6,8,9,10-hexahydro-10-[(2-methyl-1H-imidazol-1-yl)methyl]-11H-pyrido-[3,2,1-jk]-carbazol-11-one] |  |  | substantially no or no effect | substantially the same | substantially the same | substantially the same | substantially the same | substantially the same
